Source: the NIST ThermoML archive (doi:10.1016/j.tca.2010.07.027)

Assays:
[1] = Liquid; for speed of sound / mass density: 101.33 kPa; for speed of sound: Linear variable-path acoustic interferometer; for mass density: Pycnometric method; for vapor or sublimation pressure: Closed cell (Static) method
[2] = excess molar enthalpy (molar enthalpy of mixing); xn = mol fraction of the nth substance listed; conditions: 308.15 K, Liquid, 2-drop calorimeter
[3] = xn = mol fraction of the nth substance listed; conditions: 308.15 K, Liquid; for speed of sound: Frequency=2 MHz, Linear variable-path acoustic interferometer

Cc1ccccc1N [2-methylaniline]
[1]
Conditions	mass density [kg/m3]	speed of sound [m/s]	vapor or sublimation pressure [kPa]
298.15 K	994.2	1602	–
308.15 K	–	–	0.1067

Nc1ccccc1 [aniline]
[1], 298.15 K
Conditions	mass density [kg/m3]	speed of sound [m/s]	vapor or sublimation pressure [kPa]
–	1017.2	1635	0.0933

CNc1ccccc1 [N-methylaniline] + C1COCO1
Conditions	excess molar enthalpy [kcal/mol]	excess molar volume [m3/mol]	speed of sound [m/s]
[2], x2 = 0.0853	-0.0914	–	–
[2], x2 = 0.1423	-0.13	–	–
[2], x2 = 0.2533	-0.162	–	–
[2], x2 = 0.3765	-0.156	–	–
[2], x2 = 0.4531	-0.141	–	–
[2], x2 = 0.5123	-0.127	–	–
[2], x2 = 0.5976	-0.105	–	–
[2], x2 = 0.6432	-0.0927	–	–
[2], x2 = 0.7123	-0.0749	–	–
[2], x2 = 0.7943	-0.0561	–	–
[2], x2 = 0.8543	-0.0409	–	–
[2], x2 = 0.8912	-0.0321	–	–
[2], x2 = 0.9321	-0.0223	–	–
[2], x2 = 0.9721	-0.00894	–	–
[3], x2 = 0.0415	–	–	1521
[3], x2 = 0.0709	–	-1.8e-08	–
[3], x2 = 0.1211	–	–	1511
[3], x2 = 0.1771	–	-4.5e-08	–
[3], x2 = 0.2001	–	–	1501
[3], x2 = 0.2387	–	-6.3e-08	–
[3], x2 = 0.2754	–	–	1490
[3], x2 = 0.2958	–	-8e-08	–
[3], x2 = 0.3349	–	-8.8e-08	–
[3], x2 = 0.3512	–	–	1477
[3], x2 = 0.3916	–	-9.5e-08	–
[3], x2 = 0.4222	–	–	1463
[3], x2 = 0.4361	–	-1.02e-07	–
[3], x2 = 0.4912	–	-1.1e-07	–
[3], x2 = 0.4943	–	–	1447
[3], x2 = 0.5421	–	–	1436
[3], x2 = 0.5531	–	-1.12e-07	–
[3], x2 = 0.6213	–	–	1415
[3], x2 = 0.6272	–	-1.04e-07	–
[3], x2 = 0.6992	–	-9.3e-08	–
[3], x2 = 0.7003	–	–	1393
[3], x2 = 0.7417	–	-8.8e-08	–
[3], x2 = 0.7832	–	–	1367
[3], x2 = 0.8545	–	-5.1e-08	–
[3], x2 = 0.8632	–	–	1341
[3], x2 = 0.9011	–	–	1329
[3], x2 = 0.9213	–	-3e-08	–
[3], x2 = 0.9632	–	–	1307

C1COCO1 [1,3-dioxolane]
[1]
Conditions	mass density [kg/m3]	speed of sound [m/s]	vapor or sublimation pressure [kPa]
298.15 K	1047.2	1388	–
308.15 K	–	–	21.5

CNc1ccccc1 [N-methylaniline]
[1]
Conditions	mass density [kg/m3]	speed of sound [m/s]	vapor or sublimation pressure [kPa]
298.15 K	982.4	1572	–
308.15 K	–	–	0.0667

Nc1ccccc1 [aniline] + C1COCO1
Conditions	excess molar enthalpy [kcal/mol]	excess molar volume [m3/mol]	speed of sound [m/s]
[2], x2 = 0.0613	-0.0386	–	–
[2], x2 = 0.1622	-0.0988	–	–
[2], x2 = 0.2241	-0.131	–	–
[2], x2 = 0.2774	-0.156	–	–
[2], x2 = 0.3503	-0.184	–	–
[2], x2 = 0.4231	-0.203	–	–
[2], x2 = 0.5511	-0.215	–	–
[2], x2 = 0.5812	-0.214	–	–
[2], x2 = 0.6223	-0.209	–	–
[2], x2 = 0.6816	-0.195	–	–
[2], x2 = 0.7519	-0.171	–	–
[2], x2 = 0.8127	-0.14	–	–
[2], x2 = 0.8928	-0.0887	–	–
[2], x2 = 0.9514	-0.0435	–	–
[3], x2 = 0.0789	–	-1.34e-07	–
[3], x2 = 0.0812	–	–	1587
[3], x2 = 0.1132	–	-1.88e-07	–
[3], x2 = 0.1413	–	–	1576
[3], x2 = 0.2204	–	-3.3e-07	–
[3], x2 = 0.2212	–	–	1557
[3], x2 = 0.2916	–	–	1539
[3], x2 = 0.3111	–	-4.28e-07	–
[3], x2 = 0.3488	–	–	1523
[3], x2 = 0.4281	–	-4.97e-07	–
[3], x2 = 0.4621	–	–	1489
[3], x2 = 0.4916	–	-5.16e-07	–
[3], x2 = 0.5219	–	–	1470
[3], x2 = 0.523	–	-5.17e-07	–
[3], x2 = 0.5928	–	–	1447
[3], x2 = 0.5999	–	-4.93e-07	–
[3], x2 = 0.6342	–	-4.77e-07	–
[3], x2 = 0.6414	–	–	1431
[3], x2 = 0.7114	–	-4.18e-07	–
[3], x2 = 0.7131	–	–	1406
[3], x2 = 0.8001	–	–	1374
[3], x2 = 0.8202	–	-2.94e-07	–
[3], x2 = 0.8715	–	–	1347
[3], x2 = 0.8913	–	-1.9e-07	–
[3], x2 = 0.9213	–	–	1327
[3], x2 = 0.9233	–	-1.38e-07	–
[3], x2 = 0.9711	–	–	1307
[3], x2 = 0.9718	–	-5.25e-08	–

Cc1ccccc1N [2-methylaniline] + C1COCO1
Conditions	excess molar enthalpy [kcal/mol]	excess molar volume [m3/mol]	speed of sound [m/s]
[2], x2 = 0.0754	-0.0527	–	–
[2], x2 = 0.1632	-0.111	–	–
[2], x2 = 0.2424	-0.155	–	–
[2], x2 = 0.3213	-0.188	–	–
[2], x2 = 0.4001	-0.209	–	–
[2], x2 = 0.4843	-0.217	–	–
[2], x2 = 0.5655	-0.208	–	–
[2], x2 = 0.6112	-0.198	–	–
[2], x2 = 0.6979	-0.166	–	–
[2], x2 = 0.7432	-0.145	–	–
[2], x2 = 0.808	-0.112	–	–
[2], x2 = 0.8831	-0.0672	–	–
[2], x2 = 0.9311	-0.039	–	–
[2], x2 = 0.9621	-0.0207	–	–
[3], x2 = 0.0549	–	-8.4e-08	–
[3], x2 = 0.1122	–	–	1539
[3], x2 = 0.1721	–	-2.51e-07	–
[3], x2 = 0.1891	–	–	1526
[3], x2 = 0.2239	–	-3.12e-07	–
[3], x2 = 0.2413	–	–	1516
[3], x2 = 0.2769	–	-3.75e-07	–
[3], x2 = 0.2911	–	–	1506
[3], x2 = 0.3212	–	–	1500
[3], x2 = 0.351	–	-4.43e-07	–
[3], x2 = 0.4011	–	–	1484
[3], x2 = 0.4217	–	-4.86e-07	–
[3], x2 = 0.4513	–	–	1473
[3], x2 = 0.5518	–	-5.12e-07	–
[3], x2 = 0.5651	–	–	1444
[3], x2 = 0.5889	–	-5.12e-07	–
[3], x2 = 0.6218	–	-4.97e-07	–
[3], x2 = 0.6637	–	–	1415
[3], x2 = 0.6831	–	-4.66e-07	–
[3], x2 = 0.6989	–	–	1404
[3], x2 = 0.7512	–	–	1386
[3], x2 = 0.7523	–	-4.07e-07	–
[3], x2 = 0.8147	–	-3.28e-07	–
[3], x2 = 0.8319	–	–	1358
[3], x2 = 0.8916	–	-2.16e-07	–
[3], x2 = 0.9071	–	–	1330
[3], x2 = 0.9407	–	-1.23e-07	–
[3], x2 = 0.9713	–	–	1306
